Measurements from US8961930B2, “Isatin derivatives for use as in vivo imaging agents” (Imperial Innovations Limited, priority 2008, dated 2015).

Tests used:
[1] = Log P determination, octanol-water partition coefficient; type: physicochemical; details: read-out: Measured Log P
Protocol: Lipophilicity was assessed by measuring the octanol-water partition coefficient using the method of Barthel et al^18. Briefly, [^18F]11 (˜180 μCi in 25 μL ethanol) was diluted to a final volume of 100 μL using water to give the stock solution. Aliquots of stock solution (10 μL) were added to water (490 μL) and octan-1-ol (Aldrich anhydrous grade) (500 μL). The solutions were then shaken vigorously for 10 min then centrifuged (13201 g, 20° C., 30 min) Following centrifugation portions (200 μL) of the water and octanol layers were carefully removed and placed analyzed on a Cobra II Auto-Gamma counter (Packard Instruments, Meriden, Conn., USA) and compared. The octanol-water partition coefficient was obtained by dividing the octanol containing radioactivity by the water containing radioactivity. Log P was determined to be 1.61, as indicated in footnote c of Table 1 above.

LNM35 cells = assay: In vitro [^18F]11 uptake in LNM35 cells; type: cell-based, human; details: 100 μM CDDP or VP-16, 60 min uptake
Excerpt: The human ovarian carcinoma cell lines PEO1/4 were established and characterised as described in Wolf C. R. et al.^22 and Langdon S. P. et al^23. Briefly, PEO1/4 cells were derived from the malignant ascites of a patient with a recurrent mucinous ovarian adenocarcinoma, before (PEO1) and after (PEO4) the onset of a clinical resistance to cisplatin chemotherapy in this patient. The radiation-induced murine fibrosarcoma (RIF-1) tumour cell line was originally characterised by Twentyman P. R. et al.^20. The LNM35 tumour cells are a highly lymphogenous metastatic subline of the human large pulmonary carcinoma NCI-H460 cell line, as described in Kozaki K. et al.^24. […]
Cells were plated in triplicate in 12-well plates 2 or 3 days prior to the experiments and treated with the antineoplastic platinum-derived drug Cisplatin, 5-FU, the protein synthesis inhibitor cycloheximide (CHX) or the topoisomerase inhibitor etoposide (VP-16) (Sigma, UK) or corresponding vehicle at the indicated concentration and time. […] 260 μL of each sample were transferred in counting tubes and Fluorine-18 radioactivity was immediately determined using a Packard Cobra II gamma counter (Perkin Elmer, UK). […] BCA Protein assay (Pierce, UK) was performed for all samples and datas are normalized and expressed as CCPMA or RLU (Relative Light Unit)/mg of protein.

PEO4 xenograft = assay: In vivo [^18F]11 biodistribution and PET imaging, PEO4 xenograft; parameters: species or system mice; details: for 60 min biodistribution, Bone / 60 min biodistribution, Kidney / 60 min biodistribution, L. Intestine / 60 min biodistribution, Liver / 60 min biodistribution, Lung / 60 min biodistribution, Muscle / 60 min biodistribution, S. Intestine / 60 min biodistribution, Spleen / 60 min biodistribution, Tumour: PEO4
Excerpt: In vivo tumour models were established by subcutaneous injection of PEO1/4 (10×10^6 cells, with v/v matrigel, BD Biosciences, Oxford, UK), RIF-1 (5×10^5 cells) and LNM35 (1×10^6 cells) on the back of 6-8 weeks old female nu/nu-BALB/c or male C3H/hej mice (Harlan, Bicester, Oxfordshire, UK). Tumour growth was monitored every two days using electronic callipers, and tumour volume estimated using (π/6)×L×W×D (L=length, W=width and D=depth). All animal work was done by licensed investigators in accordance with the United Kingdom's “Guidance on the Operation of Animals (Scientific Procedures) Act 1986” (HMSO, London, United Kingdom, 1990) and in full compliance with government regulations and guidelines on the welfare of animals in experimental neoplasia.
For biodistribution studies, tumour-bearing mice were treated with 10 mg/kg cisplatin or vehicle for 24 h, anesthetized with isofluorane/O2/N2O and injected i.v. in the lateral tail vein with ˜100 μCi [^18F]11 for the indicated time. The different tissues were removed, weighted and placed in counting tubes for immediate Fluorine-18 radioactivity counting.
Tumour-bearing mice treated with Cisplatin (10 mg/kg for 24 h) or vehicle were scanned on a dedicated small animal PET scanner (quad-HIDAC; Oxford Positron Systems, Weston-on-the-Green, United Kingdom). Anesthetized animals were placed within a thermostatically controlled bed and positioned prone within the scanner. The bed was calibrated to provide a mouse rectal temperature of ˜37° C. A bolus injection of [^18F]11 (˜100 μCi) was given intravenously (i.v.) via the tail vein cannula and scanning commenced. Dynamic emission scans were acquired in list-mode format over 60 minutes. The acquired data were then sorted into 0.5-mm sinogram bins and 19 time frames (0.5×0.5×0.5 mm voxels; 4×15, 4×60, and 11×300 seconds) for image reconstruction, which was done by filtered back projection using a two-dimensional Hamming filter (cutoff 0.6). The image data-sets obtained were transferred to a SUN workstation (Ultra 10; SUN Microsystems, Santa Clara, Calif.) and visualized using the Analyze software (version 6.0; Biomedical Imaging Resource, Mayo Clinic, Rochester, Minn.). Cumulative images of the dynamic data composed of 0 to 1 minute after injection and 30 to 60 minutes after injection were used for visualization of radiotracer uptake and to define the regions of interest (ROI). The count densities were averaged for each ROI at each of the 19 time points to obtain a time versus radioactivity curve (TAC) for the ROIs. Tumour TAC was normalized to that of heart at each of the time points to obtain the normalized uptake value (NUV). The [^18F]9 data from […] were used as internal input function for normalizing tumour data. […] FRT is a useful variable in that it indicates the proportion of radiotracer delivered to the tumour that is retained. It therefore normalizes tumor [^18F]9 uptake to delivery.

In the case of `O=C1C(=O)N(Cc2cn(CC[18F])nn2)c2ccc(S(=O)(=O)N3CCC[C@H]3COc3ccc(F)cc3F)cc21` [[^18F]11, (S)-1-((1-(2-Fluoroethyl)-1H-[1,2,3]-triazol-4-yl)methyl)-5-(2(2,4-difluorophenoxymethyl)-pyrrolidine-1-sulfonyl)isatin], the logP at 10 min [1] is reported as 1.61, the “[^18F]11 uptake in drug-treated cells compared to control” value (LNM35 cells) is reported as “significantly increased” and the “60 min biodistribution, Bone” value (PEO4 xenograft; CDDP treated) is reported as 1.44 ± 0.66. For the same compound, the “60 min biodistribution, Bone” value (PEO4 xenograft; Control) was 1.12 ± 0.47, the “uptake in the tumour of CDDP treated vs control mice” value (PEO4 xenograft; CDDP-resistant PEO4 tumours, 60 min) was “not showing differences in uptake between control and treated” and the “PET image: uptake in the tumour” value (PEO4 xenograft; CDDP-treated mouse, PEO4 xenograft, 30-60 min) was “significant uptake”. The “60 min biodistribution, Kidney” value (PEO4 xenograft; CDDP treated) was 7.96 ± 3.34, the “60 min biodistribution, Kidney” value (PEO4 xenograft; Control) was 8.04 ± 4.24 and the “60 min biodistribution, L. Intestine” value (PEO4 xenograft; CDDP treated) was 2.89 ± 0.93. The “60 min biodistribution, L. Intestine” value (PEO4 xenograft; Control) was 2.40 ± 1.88, the “60 min biodistribution, Liver” value (PEO4 xenograft; CDDP treated) was 8.22 ± 2.89 and the “60 min biodistribution, Liver” value (PEO4 xenograft; Control) was 6.71 ± 1.56. For the same compound, the “60 min biodistribution, Lung” value (PEO4 xenograft; CDDP treated) was 4.73 ± 1.78, the “60 min biodistribution, Lung” value (PEO4 xenograft; Control) was 3.31 ± 0.83 and the “60 min biodistribution, Muscle” value (PEO4 xenograft; CDDP treated) was 1.13 ± 0.22. The “60 min biodistribution, Muscle” value (PEO4 xenograft; Control) was 0.88 ± 0.36, the “60 min biodistribution, S. Intestine” value (PEO4 xenograft; CDDP treated) was 10.43 ± 14.36 and the “60 min biodistribution, S. Intestine” value (PEO4 xenograft; Control) was 10.37 ± 10.58. For the same compound, the “60 min biodistribution, Spleen” value (PEO4 xenograft; CDDP treated) was 1.81 ± 0.80, the “60 min biodistribution, Spleen” value (PEO4 xenograft; Control) was 1.26 ± 0.45 and the “60 min biodistribution, Tumour” value (PEO4 xenograft; CDDP treated) was 2.15 ± 0.79. For the same compound, the “60 min biodistribution, Tumour” value (PEO4 xenograft; Control) was 1.66 ± 0.41.
